The nature of data set [1]: Equilibrium solubility evaluation in lipids and cosolvents. Type of data set: physicochemical. Conditions: for solubility at 72 h: 37 °C, thermodynamic from solid, read-out: solubility of PTX. The protocol: Solubility evaluation of PTX was carried out in various oils and cosolvents till attaining equilibrium by addition of excess quantity of drug to 1 gm of each of the excipient in culture vials and mixed well using vortex mixer (Remi Instruments, Mumbai, India). The sealed vials were kept on water bath shaker at 37±0.5° C. for 72 h for 150 strokes per minute. After specified time period, the samples were centrifuged at 3,000 rpm (402.5×g) for 15 minutes using a laboratory centrifuge (Remi Instruments, Mumbai, India). Drug was extracted in acetonitrile and supernatant fraction was filtered through 0.45 μm membrane filter, suitably diluted and analyzed by previously developed HPLC method.

The conditions of data set [2]: cited from earlier work.

As a reminder, the solubility is the concentration that dissolves in the medium under given conditions.

Molecules are shown by their SMILES. In brackets after ≈: the same amount, converted by molar mass. Read-outs that look alike come from different tables or passages of the source.

Take `CC(=O)O[C@H]1C(=O)[C@@]2(C)[C@H]([C@H](OC(=O)c3ccccc3)[C@]3(O)C[C@H](OC(=O)[C@H](O)[C@@H](NC(=O)c4ccccc4)c4ccccc4)C(C)=C1C3(C)C)[C@]1(OC(C)=O)CO[C@@H]1C[C@@H]2O` [PTX, Paclitaxel]: the solubility at 72 h was 78 mg/mL (≈ 91.3 mM) in data set [1] (aqueous with cosolvent or surfactant or cyclodextrin, in Tween® 80, 37±0.5° C., 72 h); 106 mg/mL (≈ 124 mM) in data set [1] (aqueous with cosolvent or surfactant or cyclodextrin, in surfactin); 235 mg/mL (≈ 275 mM) in data set [1] (organic solvent or mixture, in Transcutol® HP, 37±0.5° C., 72 h). In addition, the “solubility of PTX” value in data set [1] (in 1:1 ratio mixture of ethyl oleate:Plurol® Oleique, 37±0.5° C., 72 h) came out at 198.5 mg/mL. Moreover, in data set [2], the oral bioavailability is 5%.

(Values after patent US11547690B1, “Chemotherapeutic self-nanoemulsifying drug delivery systems and uses thereof” (KING ABDULAZIZ UNIVERSITY, priority 2022, dated 2023).)
